Measured values: patent US4297096A, “Alkyl, alkenyl, and aryl substituted triazene compounds, their salts and production thereof” (Fujisawa Pharmaceutical Co. Ltd., priority 1980, dated 1981)

Assay: Solubility
Type: physicochemical
[1] = Benzene, hexane and ether, crystals of Example 1
[2] = Benzene, hexane and ether, crystals of Example 2 (pure)
[3] = Chloroform, ethyl acetate, methanol and acetone, crystals of Example 1
[4] = Chloroform, ethyl acetate, methanol and acetone, crystals of Example 2 (pure)
[5] = water, crystals of Example 2 (pure)

| SMILES | Solubility [1] | Solubility [2] | Solubility [3] | Solubility [4] | Solubility (water, crystals of Example 1) | Solubility [5] |
| --- | --- | --- | --- | --- | --- | --- |
| CCCC/C=C/C=C/C=C/C=NN=NO [FR-900184] | Sparingly soluble | Sparingly soluble | Soluble | Soluble | Insoluble | Insoluble |
| CCC/C=C/C/C=C/C=C/C=NN=NO [FR-900190] | Sparingly soluble | Sparingly soluble | Soluble | Soluble | Insoluble | Insoluble |
